From patent US20080262097A1, “Formulations” (priority 2005, published 2008)
Values after ≈ are worked out from the molar mass of the structure shown. Read-outs that look alike come from different tables or passages of the source.

Assays:
S. aureus ATCC 12600-U [1] = assay: MBC assay; format: cell-based; conditions: Staphylococcus aureus, ATCC12600
Experimental: (§1) The staphylococci and enterococci were cultured and maintained on Mueller-Hinton Medium (agar and broth) at pH 7.2; they were incubated aerobically at 37° C. for 24 hours.
(§2) This assay, normally carried out after an MIC assay, determines the minimum concentration of a compound that is lethal to the micro-organism being tested.
(§3) These samples were then individually sub-cultured on non-selective agar medium, under the incubation conditions described above. Following incubation they were examined visually for bacterial growth.

S. aureus ATCC 12601 [2] = assay: MBC assay; format: cell-based; conditions: Staphylococcus aureus, ATCC12601
Experimental: as §1, §2, §3

S. aureus ATCC 12602 [3] = assay: MBC assay; format: cell-based; conditions: Staphylococcus aureus, ATCC12602
Experimental: as §1, §2, §3

S. aureus ATCC 12604 [4] = assay: MBC assay; format: cell-based; conditions: Staphylococcus aureus, ATCC12604
Experimental: as §1, §2, §3

S. aureus ATCC 12605 [5] = assay: MBC assay; format: cell-based; conditions: Staphylococcus aureus, ATCC12605
Experimental: as §1, §2, §3

S. aureus ATCC 12607 [6] = assay: MBC assay; format: cell-based; conditions: Staphylococcus aureus, ATCC12607
Experimental: as §1, §2, §3

S. aureus CPHL EMRSA 17 [7] = assay: MBC assay; format: cell-based; conditions: Staphylococcus aureus
Experimental: as §1, §2, §3

[8] = system: S. aureus CPHL GISA HO41340156; assay: MBC assay; format: cell-based; conditions: Staphylococcus aureus
Experimental: as §1, §2, §3

S. aureus CPHL VISA Mu3 [9] = assay: MBC assay; format: cell-based; conditions: Staphylococcus aureus
Experimental: as §1, §2, §3

S. aureus CPHL VISA Mu50 [10] = assay: MBC assay; format: cell-based; conditions: Staphylococcus aureus
Experimental: as §1, §2, §3

[11] = system: S. epidermidis (NCTC 11047); assay: MBC assay; format: cell-based; conditions: Staphylococcus epidermidis, NCTC11047
Experimental: as §1, §2, §3

[12] = system: S. saprophyticus NCTC 7292; assay: MBC assay; format: cell-based; conditions: Staphylococcus saprophyticus, NCTC7292
Experimental: as §1, §2, §3

[13] = system: Staphylococcus capitis ATCC 27840; assay: MBC assay; format: cell-based; conditions: ATCC27840
Experimental: as §1, §2, §3

[14] = system: Staphylococcus cohnii ATCC 29974; assay: MBC assay; format: cell-based; conditions: ATCC29974
Experimental: as §1, §2, §3

[15] = system: Staphylococcus haemolyticus ATCC 29970; assay: MBC assay; format: cell-based; conditions: ATCC29970
Experimental: as §1, §2, §3

[16] = system: Staphylococcus hominis ATCC 27844; assay: MBC assay; format: cell-based; conditions: ATCC27844
Experimental: as §1, §2, §3

[17] = system: Staphylococcus warneri ATCC 27836; assay: MBC assay; format: cell-based; conditions: ATCC27836
Experimental: as §1, §2, §3

[18] = system: Staphylococcus xylosus ATCC 29971; assay: MBC assay; format: cell-based; conditions: ATCC29971
Experimental: as §1, §2, §3

S. aureus ATCC 12600-U [19] = assay: Disc diffusion assay (DDA); format: cell-based, Staphylococcus aureus; conditions: zone diameter, 200 μg per disc
Experimental: as §1
(§4) A sterile paper disc was impregnated with a sample of the test compound and a minimum of 30 minutes allowed for the solvents to evaporate as far as possible. The disc was then placed on an agar plate onto which the test micro-organism had been inoculated. The plate was then incubated under the conditions described above, following which it was examined visually for signs of bacterial growth. If the test compound had antimicrobial activity, a circular zone of no growth would be obtained around the disc. The diameter of this zone of “inhibition” was measured using a ProtoCOL™ automated zone sizer (Synbiosis, Cambridge, UK). In general, a greater diameter and/or area of the zone of inhibition indicates a greater antimicrobial activity in the relevant test compound, although other factors such as test compound mobility through the agar gel may also influence the result.
(§5) The area of the zone of inhibition was calculated from the measured zone diameter (D) using the formula π(D/2)^2.

S. aureus ATCC 12601 [20] = assay: Disc diffusion assay (DDA); format: cell-based, Staphylococcus aureus; conditions: zone diameter, 200 μg per disc
Experimental: as §1, §4, §5

S. aureus ATCC 12602 [21] = assay: Disc diffusion assay (DDA); format: cell-based, Staphylococcus aureus; conditions: zone diameter, 200 μg per disc
Experimental: as §1, §4, §5

S. aureus ATCC 12604 [22] = assay: Disc diffusion assay (DDA); format: cell-based, Staphylococcus aureus; conditions: zone diameter, 200 μg per disc
Experimental: as §1, §4, §5

S. aureus ATCC 12605 [23] = assay: Disc diffusion assay (DDA); format: cell-based, Staphylococcus aureus; conditions: zone diameter, 200 μg per disc
Experimental: as §1, §4, §5

S. aureus ATCC 12606 = assay: Disc diffusion assay (DDA); format: cell-based, Staphylococcus aureus; conditions: zone diameter, 200 μg per disc
Experimental: as §1, §4, §5

S. aureus ATCC 12607 [24] = assay: Disc diffusion assay (DDA); format: cell-based, Staphylococcus aureus; conditions: zone diameter, 200 μg per disc
Experimental: as §1, §4, §5

S. aureus ATCC 25923 = assay: Disc diffusion assay (DDA); format: cell-based, Staphylococcus aureus; conditions: zone diameter, 200 μg per disc
Experimental: as §1, §4, §5

S. aureus CPHL EMRSA 17 [25] = assay: Disc diffusion assay (DDA); format: cell-based, Staphylococcus aureus; conditions: zone diameter, 200 μg per disc
Experimental: as §1, §4, §5

[26] = system: S. aureus CPHL GISA HO41340156; assay: Disc diffusion assay (DDA); format: cell-based, Staphylococcus aureus; conditions: zone diameter, 200 μg per disc
Experimental: as §1, §4, §5

S. aureus CPHL VISA Mu3 [27] = assay: Disc diffusion assay (DDA); format: cell-based, Staphylococcus aureus; conditions: zone diameter, 200 μg per disc
Experimental: as §1, §4, §5

S. aureus CPHL VISA Mu50 [28] = assay: Disc diffusion assay (DDA); format: cell-based, Staphylococcus aureus; conditions: zone diameter, 200 μg per disc
Experimental: as §1, §4, §5

SMILES	MBC (S. aureus ATCC 12602 [3])	MBC (S. aureus ATCC 12605 [5])	MBC (S. aureus ATCC 12607 [6])	MBC (S. aureus CPHL VISA Mu3 [9])	MBC [13]	MBC [14]	MBC [16]	DDA (S. aureus ATCC 12600-U [19])	DDA (S. aureus ATCC 12601 [20])	DDA (S. aureus ATCC 12602 [21])	DDA (S. aureus ATCC 12604 [22])	DDA (S. aureus ATCC 12605 [23])	DDA (S. aureus ATCC 12606)	DDA (S. aureus ATCC 12607 [24])	DDA (S. aureus ATCC 25923)	DDA (S. aureus CPHL EMRSA 17 [25])	DDA [26]	DDA (S. aureus CPHL VISA Mu3 [27])	DDA (S. aureus CPHL VISA Mu50 [28])	further results
O=C(OOC(=O)c1ccccc1)c1ccccc1 [benzoyl peroxide]	125 µg/mL (≈ 516 µM)	250 µg/mL (≈ 1030 µM)	250 µg/mL (≈ 1030 µM)	125 to 250 µg/mL (≈ 516 to 1030 µM)	250 µg/mL (≈ 1030 µM)	125 µg/mL (≈ 516 µM)	250 µg/mL (≈ 1030 µM)	12.20 mm	11.68 mm	12.73 mm	12.52 mm	12.20 mm	11.68 mm	12.31 mm	10.86 mm	11.74 mm	12.16 mm	10.90 mm	11.64 mm	MBC (S. aureus ATCC 12600-U [1]; S. aureus ATCC 12600-U, read-out: MBC): > 250 µg/mL; MBC (S. aureus ATCC 12601 [2]; S. aureus ATCC 12601, read-out: MBC): 250 µg/mL (≈ 1030 µM); MBC (S. aureus ATCC 12604 [4]; S. aureus ATCC 12604, read-out: MBC): 250 µg/mL (≈ 1030 µM); MBC (S. aureus CPHL EMRSA 17 [7]): 125 to 250 µg/mL (≈ 516 to 1030 µM); MBC ([8]; S. aureus CPHL GISA HO41340156 (Van/Tec intermediate), read-out: MBC): 250 µg/mL (≈ 1030 µM); MBC (S. aureus CPHL VISA Mu50 [10]; S. aureus CPHL VISA Mu50 (Van intermediate), read-out: MBC): 250 µg/mL (≈ 1030 µM); MBC ([11]; S. epidermidis NCTC 11047, read-out: MBC): 250 µg/mL (≈ 1030 µM); MBC ([12]; S. saprophyticus NCTC 7292, read-out: MBC): > 250 µg/mL; MBC ([15]; Staphylococcus haemolyticus ATCC 29970, read-out: MBC): 250 µg/mL (≈ 1030 µM); MBC ([17]; Staphylococcus warneri ATCC 27836, read-out: MBC): > 250 µg/mL; MBC ([18]; Staphylococcus xylosus ATCC 29971, read-out: MBC): 250 µg/mL (≈ 1030 µM)
CC(C)(C)c1cc(O)ccc1O [TBHQ, t-butyl hydroquinone]	7.8 µg/mL (≈ 46.9 µM)	3.9 µg/mL (≈ 23.5 µM)	3.9 µg/mL (≈ 23.5 µM)	7.8 µg/mL (≈ 46.9 µM)	3.9 µg/mL (≈ 23.5 µM)	7.8 µg/mL (≈ 46.9 µM)	3.9 µg/mL (≈ 23.5 µM)	51.24 mm	57.34 mm	57.66 mm	55.03 mm	59.55 mm	53.34 mm	54.50 mm	44.70 mm	51.05 mm	75.37 mm	50.73 mm	50.11 mm	MBC (S. aureus ATCC 12600-U [1]): 7.8 µg/mL (≈ 46.9 µM); MBC (S. aureus ATCC 12601 [2]): 15.6 µg/mL (≈ 93.9 µM); MBC (S. aureus ATCC 12604 [4]): 7.8 µg/mL (≈ 46.9 µM); MBC (S. aureus CPHL EMRSA 17 [7]; S. aureus CPHL EMRSA 17 (resistance Met/β-lactams), read-out: MBC): 3.9 µg/mL (≈ 23.5 µM); MBC [8]: 15.6 µg/mL (≈ 93.9 µM); MBC (S. aureus CPHL VISA Mu50 [10]; VISA): 7.8 µg/mL (≈ 46.9 µM); MBC [11]: 7.8 µg/mL (≈ 46.9 µM); MBC [12]: 7.8 µg/mL (≈ 46.9 µM); MBC ([15]; Staphylococcus haemolyticus): 7.8 µg/mL (≈ 46.9 µM); MBC ([17]; Staphylococcus warneri): 7.8 µg/mL (≈ 46.9 µM); MBC ([18]; Staphylococcus xylosus): 15.6 µg/mL (≈ 94 µM)
